# Results as given in patent US20040186022A1, “Enhanced herbicides” (priority 1999, published 2004).
# Several values for one entry are separate records, joined by “and”; a condition that tells them apart may be missing. Identical values can stand only once.
# How the values were obtained:
# [1] = test system: chickweed, redtop, velvetleaf, crabgrass and green foxtail; assay: Enhancement of herbicidal activity of caprylic/capric acids (c/c) using selected compounds at equimolar amounts; assay type: in vivo; parameters: Relative injury ratings, Day #4 / Relative injury ratings, Day #5: scale not given here; conditions: for Relative injury ratings, Day #2: Day 2 after treatment, 40 G/acre, 8 pots, rating 1-5 per pot, […] Emsorb 6900, […] mineral oil; for Relative injury ratings, Day #4: Day 4 after treatment; for Relative injury ratings, Day #5: Day 5 after treatment; for Average rating per pot: scale 1-5
# Excerpt: (§1) The herbicides were applied in the “spray to drip” amount or at a calibrated 20-60 gallons/acre. “Spray to drip” is an uncalibrated application of fluid to foliage, where sufficient spray volume is used to sufficiently saturate the foliage surface until excess fluid begins to drip from the foliage.
# soybeans [2] = assay: Synergistic relationships between succinic acid and caprylic acid at different application rates, testing soybeans; assay type: in vivo; conditions: 2 days after a single foliar application, average of 2 sites, soybean Stine 2250; for Overall Effect: 5 equals profound desiccation
# Excerpt: as §1
# soybeans [3] = assay: Synergy comparisons of various organic acids with caprylic acid, testing soybeans; assay type: in vivo; conditions: 3 days after a single foliar application, average of 2 sites, soybean Stine 2250; for Overall Effect: 5 equals profound desiccation
# Excerpt: as §1
# [4] = Measurement of pH values for test desiccants (Example 55); assay type: physicochemical
# plants [5] = assay: Herbicidal activity: comparison of caprylic, pelargonic and an equimolar mixture of caprylic and pelargonic acids; assay type: in vivo; conditions: for Injury ratings based on 2 independent evaluations, 40 G/acre: 40 G/acre: chickweed, lambsquarter and green foxtail; for Injury ratings based on 2 independent evaluations, 40 G/acre / Injury ratings based on 2 independent evaluations, 60 G/acre: redroot pigweed, each pot rated 1 to 5; for Injury ratings based on 2 independent evaluations, 60 G/acre: 60 G/acre: chickweed, lambsquarter, green foxtail, crabgrass and wheat; for Average rating per pot: rating 1 to 5, 5 = complete desiccation of all plants
# Excerpt: The herbicides were applied in the “spray to drip” amount or at a calibrated 20-60 gallons/acre. “Spray to drip” is an uncalibrated application of fluid to foliage, where sufficient spray volume is used to sufficiently saturate the foliage surface until excess fluid begins to drip from the foliage. In general, about 5 to 200 gallons/acre, preferably 20-100 gallons/acre can be effective.
# [6] = test system: snapbean and potato plants; assay: Enhancement of Scythe's herbicidal activity by selected compounds; assay type: in vivo; parameters: Totals, all evaluations, Beans / Totals, all evaluations, Potatoes / Totals, all evaluations, All / evaluation, 2 days, beans / evaluation, 2 days, potatoes / evaluation, 11 days, beans / evaluation, 11 days, potatoes / evaluation, 15 days, beans / evaluation, 15 days, potatoes: scale not given here
# Excerpt: as §1
# [7] = test system: navy dry beans (navy Vista); assay: Synergistic interactions of succinic acid and di-ammonium succinate with herbicidal compounds, navy dry beans; assay type: in vivo, dry bean (navy); conditions: for Injury rating, average per plot: scale 1-5
# Excerpt: as §1
# [8] = test system: black beans (dry bean variety T39); assay: Synergistic interactions of succinic acid and di-ammonium succinate with other herbicidal compounds, dry beans (black); assay type: in vivo; conditions: for Injury rating, average per plot: scale 1-5
# Excerpt: as §1
# Dry Beans = assay: Synergistic relationship between succinic or citric acid and caprylic acid, testing dry beans; assay type: in vivo; conditions: 3 days after single foliar application, dry bean Vista; for Green Foliage, Overall Effect / Yellow Foliage, Overall Effect: 5 equals profound desiccation
# Excerpt: as §1
# plants [9] = assay: Synergistic relationship between succinic acid and caprylic/capric acids C/C, herbicidal activity; assay type: in vivo
# Excerpt: as §1
# [10] = test system: 40 G/a: crab grass, pigweed, chick weed and foxtail; 60 G/a: pigweed, Kentucky bluegrass, foxtail, crab grass and barnyard grass; spray to drip: Kentucky …; assay: Herbicidal activities: synergy between succinic acid and pelargonic acid; assay type: in vivo; parameters: Total injury ratings, 60 G/a / Total injury ratings, Spray to drip / Total injury ratings, Total: scale not given here
# Excerpt: as §1
# young potato plants = assay: Effects of desiccants and desiccant combinations with other compounds on young potato plants; assay type: in vivo; parameters: All evaluations (total score): scale not given here
# Excerpt: as §1
# [11] = test system: 60 G/a: velvetleaf, black nightshade, redroot pigweed, foxtail and snapbeans; spray to drip: black nightshade, velvetleaf, foxtail and snapbeans; assay: Efficacy of 1.5% succinic acid with oleic, caprylic or pelargonic acid in an emulsification system (Emsorb 6900); assay type: in vivo; parameters: Injury rating, total score for 2 evaluation, Spray to drip / Injury rating, total score for 2 evaluation, Total Rating: scale not given here
# Excerpt: as §1
# [12] = Day 1, one application at 40 G/acre, treatments 1-4, 9-11 in Emsorb 6900/mineral oil/Hasten, 5-8, 12-14 in 0.3% Sylgard 309
# [13] = Day 2, one application at 40 G/acre, treatments 1-4, 9-11 in Emsorb 6900/mineral oil/Hasten, 5-8, 12-14 in 0.3% Sylgard 309
smiles,measurement,setting,value
"N.N.O=C(O)C(O)C(O)C(=O)O (centres unmarked) [ammonium tartrate (1.42%), ammonium tartrate]","Relative injury ratings, Day #2",[1],0
same,"Relative injury ratings, Day #4",[1],0
same,"Relative injury ratings, Day #5",[1],0
same,Average rating per pot,[1],0
"N.N.O=C(O)CCC(=O)O [di-ammonium succinate (1.26%), di-ammonium succinate]","Relative injury ratings, Day #2",[1],0
same,"Relative injury ratings, Day #4",[1],0
same,"Relative injury ratings, Day #5",[1],0
same,Average rating per pot,[1],0
CCCCCCCC(=O)O [Caprylic Acid (0.2%)],Foliage Affected (%),soybeans [2],1.25%
same,Overall Effect,soybeans [2],0.5
C[C@H](O)C(=O)O [L-Lactic Acid (0.5%)],Foliage Affected (%),soybeans [3],0%
same,Overall Effect,soybeans [3],0
same,pH Value,[4],1.93
CCCCCCCCC(=O)O [4.5% pelargonic],"Injury ratings based on 2 independent evaluations, 40 G/acre",plants [5],45.1
same,"Injury ratings based on 2 independent evaluations, 60 G/acre",plants [5],53.9
same,Average rating per pot,plants [5],4.51
O=C(O)CC(O)(CC(=O)O)C(=O)O [CitricAcid (0.5%)],Foliage Affected (%),soybeans [3],0%
same,Overall Effect,soybeans [3],0
"N.N.O=S(=O)(O)O [ammonium sulfate (1.12%), ammonium sulfate]","Relative injury ratings, Day #2",[1],0
same,"Relative injury ratings, Day #4",[1],0
same,"Relative injury ratings, Day #5",[1],0
same,Average rating per pot,[1],0
O=C([O-])c1ccccc1O.[Na+] [2% NaSalicylate],"Totals, all evaluations, All",[6]; beans + potatoes,7.5
same,"evaluation, 2 days, potatoes","[6]; potato, 2 days after application, 40 gallons/acre",1
same,"evaluation, 11 days, potatoes","[6]; potato, 11 days after application, 40 gallons/acre",1
same,"evaluation, 15 days, potatoes","[6]; potato, 15 days after application, 40 gallons/acre",1
same,"evaluation, […], potatoes","[6]; potato, […] after application, 40 gallons/acre, 6 = complete desiccation",0
same,"Totals, all evaluations, Potatoes","[6]; potato, total of 4 evaluation times",3
same,"evaluation, 2 days, beans","[6]; snapbean, 2 days after application, 40 gallons/acre",1
same,"evaluation, 11 days, beans","[6]; snapbean, 11 days after application, 40 gallons/acre",1.5
same,"evaluation, 15 days, beans","[6]; snapbean, 15 days after application, 40 gallons/acre",1
same,"evaluation, […], beans","[6]; snapbean, […] after application, 40 gallons/acre, 6 = complete desiccation",1
same,"Totals, all evaluations, Beans","[6]; snapbean, total of 4 evaluation times",4.5
CCCCCCCCC(=O)O [3.375% pelargonic],"Injury ratings based on 2 independent evaluations, 40 G/acre",plants [5],43
same,"Injury ratings based on 2 independent evaluations, 60 G/acre",plants [5],53.6
same,Average rating per pot,plants [5],4.41
"N.N.O=C(O)CCC(=O)O [2.52% di-ammonium succinate, di-ammonium succinate]","Injury rating, average per plot",[7]; [12],0
same,"Injury rating, average per plot",[7]; Day 2,0
same,"Injury rating, average per plot",[7]; Day 3,0
same,"Injury rating, average per plot",[7]; Day 4,0
same,"% desiccation (Day 12), foliage",[7],0%
same,"% desiccation (Day 12), pods",[7],0%
same,"% desiccation (Day 12), vines",[7],0%
same,"Injury rating, average per plot",[7]; Day 12,0
same,"Injury rating, average per plot",[8]; [13],0
same,"% desiccation (Day 12), foliage",[8],0%
same,"% desiccation (Day 12), pods",[8],0%
same,"% desiccation (Day 12), vines",[8],0%
same,"Injury rating, average per plot",[8]; Day 12,0
O=C([O-])c1ccccc1O.[Na+] [Na Salicylate (2%)],"Green Foliage, Foliage Affected (%)",Dry Beans,90%
same,"Yellow Foliage, Foliage Affected (%)",Dry Beans,>90%
same,"Green Foliage, Overall Effect",Dry Beans,5
same,"Yellow Foliage, Overall Effect",Dry Beans,5
O=C([O-])c1ccccc1O.[Na+] [Na Salicylate (0.5%)],"Green Foliage, Foliage Affected (%)",Dry Beans,5-10%
same,"Yellow Foliage, Foliage Affected (%)",Dry Beans,30%
same,"Green Foliage, Overall Effect",Dry Beans,2
same,"Yellow Foliage, Overall Effect",Dry Beans,1
O=C([O-])c1ccccc1O.[Na+] [0.5% sodium salicylate],"Injury ratings, Total",plants [9]; 40 G/a + 60 G/a,1.5
same,"Injury ratings based on 2 independent evaluations, 40 G/a","plants [9]; 40 G/acre: Canadian thistle, velvet leaf, Johnson grass and giant foxtail, each pot rated 1 to 5",1
same,"Injury ratings based on 2 independent evaluations, 60 G/a","plants [9]; 60 G/acre: velvetleaf, Johnson grass and giant foxtail, each pot rated 1 to 5",0.5
same,Average rating per pot,"plants [9]; rating 1 to 5, 5 = complete desiccation of all plants",0.04
C[C@H](O)C(=O)O [L-Lactic Acid (1.0%)],Foliage Affected (%),soybeans [2],1.25%
same,Overall Effect,soybeans [2],0.5
O=C(O)CC(O)C(=O)O [L-Malic Acid (0.5%)],Foliage Affected (%),soybeans [3],0%
same,Overall Effect,soybeans [3],0
same,pH Value,[4],1.69
O=C(O)CCC(=O)O [Succinic Acid (0.5%)],Foliage Affected (%),soybeans [3],0%
same,Overall Effect,soybeans [3],0
same,"Green Foliage, Foliage Affected (%)",Dry Beans,0%
same,"Yellow Foliage, Foliage Affected (%)",Dry Beans,0%
same,"Green Foliage, Overall Effect",Dry Beans,0
same,"Yellow Foliage, Overall Effect",Dry Beans,0
same,pH Value,[4],1.94
O=C(O)CC(O)(CC(=O)O)C(=O)O [Citric Acid (0.5%)],"Green Foliage, Foliage Affected (%)",Dry Beans,0%
same,"Yellow Foliage, Foliage Affected (%)",Dry Beans,0%
same,"Green Foliage, Overall Effect",Dry Beans,0
same,"Yellow Foliage, Overall Effect",Dry Beans,0
same,pH Value,[4],1.64
"O=C([O-])c1ccccc1O.[Na+] [3% sodium salicylate, sodium salicylate]","Injury rating, average per plot",[7]; [12],3.8
same,"Injury rating, average per plot",[7]; Day 2,4.13
same,"Injury rating, average per plot",[7]; Day 3,4.57
same,"Injury rating, average per plot",[7]; Day 4,4.5
same,"% desiccation (Day 12), foliage",[7],92%
same,"% desiccation (Day 12), pods",[7],90%
same,"% desiccation (Day 12), vines",[7],70%
same,"Injury rating, average per plot",[7]; Day 12,4.7
same,"Injury rating, average per plot",[8]; [13],4
same,"% desiccation (Day 12), foliage",[8],95%
same,"% desiccation (Day 12), pods",[8],90%
same,"% desiccation (Day 12), vines",[8],90%
same,"Injury rating, average per plot",[8]; Day 12,4.78
CCCCCCCC(=O)O [Caprylic Acid (0.5%)],Foliage Affected (%),soybeans [2],9%
same,Overall Effect,soybeans [2],2.25
same,Foliage Affected (%),soybeans [3],5%
same,Overall Effect,soybeans [3],1.5
same,"Green Foliage, Foliage Affected (%)",Dry Beans,10-15%
same,"Yellow Foliage, Foliage Affected (%)",Dry Beans,70%
same,"Green Foliage, Overall Effect",Dry Beans,2.5
same,"Yellow Foliage, Overall Effect",Dry Beans,2
same,pH Value,[4],3.55 and 3.30
"CCCCCCCCC(=O)O [4% pelargonic acid, pelargonic acid]","Total injury ratings, Total","[10]; 40 G/a, 60 G/a and spray to drip",153.4
same,"Total injury ratings, 40 G/a","[10]; 40 G/a, 9 pots/treatment, rating 1-5 per pot, 1.125% Emsorb 6900",41.6
same,"Total injury ratings, 60 G/a","[10]; 60 G/a, 10 pots/treatment",45.6
same,"Total injury ratings, Spray to drip","[10]; spray to drip, 7 pots/treatment",66.2
CCCCCCCC(=O)O [1% caprylic],"Injury ratings of treated plants, day 1","young potato plants; 1 day after application, 6 = complete desiccation",2
same,"Injury ratings of treated plants, day 3","young potato plants; 3 days after application, 6 = complete desiccation",3
same,"Injury ratings of treated plants, day 6","young potato plants; 6 days after application, 6 = complete desiccation",2
same,"Injury ratings of treated plants, day 17","young potato plants; 17 days after application, 6 = complete desiccation",2.5
same,"Injury ratings of treated plants, day 22","young potato plants; 22 days after application, 6 = complete desiccation",3
same,"Injury ratings of treated plants, day 27","young potato plants; 27 days after application, 6 = complete desiccation",3
same,"Injury ratings of treated plants, […]","young potato plants; […] after application, 6 = complete desiccation",2
same,All evaluations (total score),young potato plants; total of all evaluation times,17.5
"CCCCCCCC/C=C\CCCCCCCC(=O)O [3% oleic, oleic acid]","Injury rating, total score for 2 evaluation, Total Rating",[11]; 60 G/a plus spray to drip,33.6
same,"Injury rating, total score for 2 evaluation, 60 G/a","[11]; 60 G/a, rating 1-5 per pot, 1% Emsorb, 0.3% Hasten",24.2
same,Average rating per pot,[11]; scale 1-5,1.2
same,"Injury rating, total score for 2 evaluation, Spray to drip",[11]; spray to drip,9.4
